Among the test systems are HOP-18; SNB-78; M19-MEL; LXFL 529; KM-20L2; DMS-273; DLD-1; XF498; RXF 631.
Assay in all cases: DTP human tumour cell line panel, 48 h

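Tested at 5 concentrations; 48 h exposure; 96-well plates; endpoints linearly interpolated, else capped at highest concentration. The concentration for 50% growth inhibition is given as GI50.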 Activity calls are given as the source filed them. Cut-off read from the data, not from the text of the source: active = GI50 up to about 1.1 µM and inactive = higher. Bounds are passed on as bounds.

For orientation: GI50 means the concentration that inhibits growth by half. Take `NC(=S)N/N=C1\C(=O)N(CCc2ccccc2)C(=O)C1C(=O)NCCc1ccccc1` (stereo unspecified): the GI50 in the assay on HOP-18, in the assay with SNB-78, with M19-MEL, with LXFL 529, in the assay on KM-20L2 and in the assay on DMS-273 was > 100 µM (inactive) in each case.

On to `COC(=O)c1c(N)n[nH]c1N`, for which the GI50 in the assay with SNB-78, in the assay with M19-MEL, in the assay on DLD-1, in the assay with KM-20L2, in the assay on XF498 and in the assay with RXF 631 was > 100 µM (inactive) each time. For the same compound, the GI50 in the assay on DMS-273 is > 100 µM (inactive).

Turning to `CC[C@@]1(OP(=O)(O)O)C(=O)OCc2c1cc1n(c2=O)Cc2cc3ccccc3nc2-1`, the GI50 is 1.08 µM (active) in the assay on HOP-18; 4.63 µM (inactive) with SNB-78; 1.01 µM (active) in the assay on M19-MEL; 1.11 µM (active) with DLD-1; 1.73 µM (inactive) with LXFL 529; 1 µM (active) with KM-20L2. For the same compound, the GI50 in the assay on XF498 was 0.221 µM (active); in the assay on DMS-273, 0.0513 µM (active).

In the case of `Cc1ccc(/C=C2\CCCCC2=O)cc1`, the GI50 in the assay on HOP-18 is 24 µM (inactive); in the assay with SNB-78 it was 73.6 µM (inactive); with M19-MEL it was > 100 µM (inactive); in the assay on DLD-1, 49.2 µM (inactive); in the assay on LXFL 529, 94.6 µM (inactive); in the assay with KM-20L2, > 100 µM (inactive). Besides, the values for the GI50 in the assay with XF498, in the assay with RXF 631 and in the assay with DMS-273 were > 100 µM (inactive), > 100 µM (inactive) and 40.1 µM (inactive), respectively.

For the compound `CC(CCc1ccc2c(c1)c(N)c1ccc(N)cc1[n+]2[O-])CC(C)(C)C` (stereo unspecified), the GI50 is 1.93 µM (inactive) with HOP-18; 2.05 µM (inactive) in the assay on SNB-78; 1.44 µM (inactive) with M19-MEL; 1.82 µM (inactive) with DLD-1; 1.53 µM (inactive) with LXFL 529; 1.37 µM (inactive) in the assay with KM-20L2. Further, the GI50 in the assay on XF498 is 1.16 µM (inactive); in the assay on RXF 631 it was 1.65 µM (inactive); with DMS-273 it was 2.21 µM (inactive).

For `O=c1cc(CO)oc2c3c(cc(O)c12)OCC(COC1OC(CO)C(O)C(O)C1O)=CC3` (stereo unspecified), the GI50 in the assay with HOP-18, in the assay on SNB-78, in the assay with M19-MEL, with DLD-1, in the assay on LXFL 529 and in the assay with KM-20L2 was > 100 µM (inactive) in each case. Further, the GI50 in the assay with DMS-273 is > 100 µM (inactive).

Take `CN(CC1NCCCC1O)C12CC3CC(CC(C3)C1)C2` (stereo unspecified): the GI50 with HOP-18, in the assay on M19-MEL, in the assay with DLD-1, in the assay with LXFL 529, in the assay on KM-20L2 and in the assay with XF498 was > 100 µM (inactive) each time. Moreover, in the assay with DMS-273, the GI50 is > 100 µM (inactive).

On to `CC1=C(C(=O)Nc2ccccc2)C(c2ccc(C(C)C)cc2)C(C(=O)Nc2ccccc2)=C(C)N1`, for which the GI50 is 19.1 µM (inactive) in the assay with HOP-18; 31.5 µM (inactive) with SNB-78; 15.6 µM (inactive) in the assay on M19-MEL; 17.5 µM (inactive) in the assay on DLD-1; 16.7 µM (inactive) in the assay with LXFL 529; 15.2 µM (inactive) in the assay with KM-20L2. Further, the results for the GI50 with XF498 and in the assay with RXF 631 were 13.1 µM (inactive) and 18.2 µM (inactive), respectively.

As for `C=C1C(=O)OC2/C=C(\C)C(OC(C)=O)C3OC3C(C)(O)CC(OC(=O)/C(C)=C/C)C12` (stereo unspecified), the GI50 in the assay with HOP-18 is 11.3 µM (inactive); in the assay with SNB-78, 8.3 µM (inactive); in the assay with M19-MEL, 8.49 µM (inactive); with LXFL 529, 2.44 µM (inactive); with KM-20L2, 4.46 µM (inactive); with XF498 it was 6.87 µM (inactive). For the same compound, the GI50 with DMS-273 was 24.5 µM (inactive).

On to `Cc1cc2c(cc1C)[n+]([O-])c(C(=O)/C=C/c1ccc3c(c1)OCO3)c(C)[n+]2[O-]`, for which the GI50 in the assay with HOP-18 was > 100 µM (inactive); with SNB-78 it was 60.3 µM (inactive); with M19-MEL, > 100 µM (inactive); in the assay with DLD-1 it was > 100 µM (inactive); in the assay on KM-20L2, > 100 µM (inactive); in the assay with XF498, 27 µM (inactive). In addition, the GI50 was 10.1 µM (inactive) in the assay with RXF 631 and 27 µM (inactive) with DMS-273.

For `CC1(C)c2ccccc2N2C(c3ccccc3)=NOC21C` (stereo unspecified), the GI50 with HOP-18, with SNB-78, in the assay on M19-MEL, with DLD-1, in the assay on LXFL 529 and in the assay with KM-20L2 was > 100 µM (inactive) throughout. Also, the GI50 with RXF 631 and with DMS-273 was > 100 µM (inactive) in each case.

For the compound `CCOC(=O)/C(O)=C(/c1n[nH]c(=O)c2ccccc12)[N+](=O)[O-]`, the GI50 in the assay on HOP-18, in the assay with SNB-78, in the assay with M19-MEL, with DLD-1, with LXFL 529 and in the assay on KM-20L2 was > 100 µM (inactive) throughout. For the same compound, the GI50 with DMS-273 is > 100 µM (inactive).

As for `Cc1cc(Cl)ccc1NC(=O)C1C(=O)N(c2ccc(Cl)cc2C)C(=O)/C1=N\N` (stereo unspecified), the GI50 is 40.6 µM (inactive) in the assay with HOP-18; 74.8 µM (inactive) in the assay on SNB-78; 43.2 µM (inactive) with M19-MEL; 44 µM (inactive) in the assay with LXFL 529; 36 µM (inactive) in the assay on KM-20L2; 65 µM (inactive) with XF498.

For the compound `Cc1c2n(c(=O)[nH]c1=O)C1OC(CO)C(N=[N+]=[N-])C1O2` (stereo unspecified), the GI50 in the assay with SNB-78, in the assay on M19-MEL, with DLD-1, in the assay on LXFL 529, in the assay with KM-20L2 and in the assay on DMS-273 was > 100 µM (inactive) throughout.

As to `C[C@]12CC[C@H](O)CC1CCC[C@@H]2O` (stereo partly specified), the GI50 in the assay on SNB-78, with DLD-1, in the assay on LXFL 529, with XF498, in the assay with RXF 631 and with DMS-273 was > 100 µM (inactive) throughout.

Take `CC(C)N(CCn1c2c3ccccc3ccc2c2oc(=O)c3ccccc3c21)C(C)C`: the GI50 in the assay on HOP-18 is 32.7 µM (inactive); in the assay with SNB-78 it was 98.9 µM (inactive); in the assay with M19-MEL, > 100 µM (inactive); in the assay on DLD-1 it was > 100 µM (inactive); in the assay on LXFL 529, > 100 µM (inactive); with KM-20L2, > 100 µM (inactive). In addition, the GI50 in the assay on XF498 is 75.7 µM (inactive); in the assay on RXF 631, > 100 µM (inactive).

On to `CCO/C=C1\N=C(c2ccc(Cl)c(Cl)c2)OC1=O`, for which the GI50 in the assay on SNB-78, in the assay on M19-MEL, with DLD-1, in the assay on LXFL 529, with KM-20L2 and with XF498 was > 100 µM (inactive) in each case. Further, the GI50 in the assay on DMS-273 is > 100 µM (inactive).

Consider `O=c1c2ccccc2c2nc3ccccc3nc2n1C1CCCCC1`, for which the GI50 with SNB-78, in the assay with M19-MEL, in the assay on LXFL 529, in the assay with KM-20L2 and in the assay on DMS-273 was > 100 µM (inactive) in each case.

In the case of `COC(=O)C1=C(C(=O)OC)C2(c3ccccc3)OC1(c1ccccc1)c1cc3ccccc3cc12`, the GI50 in the assay with HOP-18 was 1.22 µM (inactive); in the assay on M19-MEL, 1.98 µM (inactive); in the assay on DLD-1, 1.74 µM (inactive); in the assay with LXFL 529, 1.22 µM (inactive); with KM-20L2, 1.88 µM (inactive); in the assay on RXF 631, 1.88 µM (inactive). Besides, in the assay on DMS-273, the GI50 is 1.76 µM (inactive).

For `CCC1(OC(=O)CN2CCN(CCO)CC2)C(=O)OCc2c1cc1n(c2=O)Cc2cc3ccccc3nc2-1` (stereo unspecified), the 50% growth inhibitory concentration (GI50) in the assay on HOP-18 was 0.76 µM (active); in the assay with SNB-78, 5.25 µM (inactive); in the assay on M19-MEL it was 0.789 µM (active); in the assay with DLD-1, 6.62 µM (inactive); with LXFL 529, 6.05 µM (inactive); in the assay on KM-20L2, 1.22 µM (inactive). Further, the GI50 in the assay on XF498 is 2.16 µM (inactive); with DMS-273, 0.0652 µM (active).

With `CC(=O)O[C@H]1C(=O)[C@@]2(C)C([C@H](OC(=O)c3ccccc3)[C@]3(O)C[C@H](OC(=O)[C@H](O)[C@H](NC(=O)c4ccccc4)c4ccc(Cl)cc4)C(C)=C1C3(C)C)C1(OC(C)=O)CO[C@@H]1C[C@@H]2O` (stereo partly specified), the GI50 in the assay on HOP-18 was 0.0794 µM (active); in the assay on SNB-78 it was 0.071 µM (active); in the assay with M19-MEL it was 0.000302 µM (active); in the assay with DLD-1, 0.00233 µM (active); with LXFL 529, 0.00191 µM (active); in the assay on KM-20L2, 0.00103 µM (active). For the same compound, the GI50 is 0.00728 µM (active) in the assay on XF498, 0.104 µM (active) in the assay on RXF 631 and 0.000111 µM (active) in the assay with DMS-273.

In the case of `c1ccc(C(c2ccccc2)c2ccccn2)cc1`, the GI50 in the assay on HOP-18, in the assay on SNB-78, with M19-MEL, in the assay with DLD-1, in the assay on KM-20L2 and in the assay on XF498 was > 100 µM (inactive) in each case. Also, the GI50 in the assay with RXF 631 and in the assay on DMS-273 was > 100 µM (inactive) in each case.

`c1ccc2c(c1)[nH]c1c[nH]c3c4cccnc4nc-3c12`: the GI50 with HOP-18 was 18.6 µM (inactive); in the assay with SNB-78 it was 23.4 µM (inactive); with M19-MEL, 16.9 µM (inactive); in the assay on DLD-1, 15.6 µM (inactive); in the assay on LXFL 529, 18.5 µM (inactive).

(Values after ChEMBL document CHEMBL1201862, “PubChem BioAssay data set” (2004).)
